Numbers after ± are expanded uncertainties.
Details: Liquid; for viscosity: Falling or rolling sphere viscometry; for mass density: Constant-volume piezometry

CCCCn1cc[n+](C)c1.F[P-](F)(F)(F)(F)F [1-butyl-3-methylimidazolium hexafluorophosphate]
Details | mass density, 293.15 K [kg/m3] | mass density, 313.15 K [kg/m3] | mass density, 333.15 K [kg/m3] | mass density, 353.15 K [kg/m3] | viscosity, 293.15 K [mPa·s] | viscosity, 313.15 K [mPa·s] | viscosity, 333.15 K [mPa·s] | viscosity, 353.15 K [mPa·s]
100 kPa | – | – | – | – | 395 ± 42 | – | – | –
15000 kPa | 1377 ± 6 | 1362 ± 6 | 1346 ± 5 | 1330 ± 5 | 468 ± 43 | 140 ± 10 | 61 ± 3.7 | 29.3 ± 1.8
20000 kPa | 1379 ± 6 | 1364 ± 6 | 1349 ± 5 | 1332 ± 5 | 504 ± 47 | 151 ± 11 | 63.2 ± 3.9 | 30.5 ± 1.9

Reference: the NIST ThermoML archive (doi:10.1021/je700022b)
